# Laboratory results published in ChEMBL document CHEMBL5649169 (ChemMedChem, 2018).
# Key:
# [1] = molecular target: Heterogeneous nuclear ribonucleoprotein L (Homo sapiens) (UniProt P14866)
# [2] = molecular target: Misshapen-like kinase 1 (Homo sapiens) (UniProt Q8N4C8)
# [3] = molecular target: Threonine--tRNA ligase 1, cytoplasmic (Homo sapiens) (UniProt P26639)
# [4] = molecular target: Mitogen-activated protein kinase kinase kinase 11 (Homo sapiens) (UniProt Q16584)
# [5] = molecular target: Cyclin-dependent kinase 12 (Homo sapiens) (UniProt Q9NYV4)
# [6] = molecular target: Protein kinase C delta type (Homo sapiens) (UniProt Q05655)
# Chain of Protein kinase C delta type (Homo sapiens) (Q05655 whole entry, looked up): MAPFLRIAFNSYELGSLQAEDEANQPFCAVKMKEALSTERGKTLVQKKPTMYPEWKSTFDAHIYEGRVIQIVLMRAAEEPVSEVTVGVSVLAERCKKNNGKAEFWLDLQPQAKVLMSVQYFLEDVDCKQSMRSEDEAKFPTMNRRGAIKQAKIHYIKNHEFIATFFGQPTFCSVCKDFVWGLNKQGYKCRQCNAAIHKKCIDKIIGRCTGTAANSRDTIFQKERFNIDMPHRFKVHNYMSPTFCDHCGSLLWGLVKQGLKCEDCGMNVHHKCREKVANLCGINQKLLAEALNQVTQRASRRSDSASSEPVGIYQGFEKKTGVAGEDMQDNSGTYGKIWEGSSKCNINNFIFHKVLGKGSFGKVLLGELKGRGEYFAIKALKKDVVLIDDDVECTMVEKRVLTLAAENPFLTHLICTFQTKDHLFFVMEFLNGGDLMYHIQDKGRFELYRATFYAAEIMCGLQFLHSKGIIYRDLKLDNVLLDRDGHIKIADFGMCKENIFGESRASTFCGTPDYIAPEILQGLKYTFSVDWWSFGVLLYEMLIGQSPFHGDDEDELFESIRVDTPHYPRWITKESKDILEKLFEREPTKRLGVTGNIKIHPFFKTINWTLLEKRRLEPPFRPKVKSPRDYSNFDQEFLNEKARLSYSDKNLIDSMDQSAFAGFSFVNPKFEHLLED
# [7] = molecular target: Large ribosomal subunit protein eL22 (Homo sapiens) (UniProt P35268)
# [8] = molecular target: Amino acid transporter heavy chain SLC3A2 (Homo sapiens) (UniProt P08195)
# [9] = molecular target: Mammalian ependymin-related protein 1 (Homo sapiens) (UniProt Q9UM22)
# Nucleolin (Homo sapiens) = Nucleolin (Homo sapiens) (UniProt P19338)
# Chain of Nucleolin (Homo sapiens) (P19338 whole entry): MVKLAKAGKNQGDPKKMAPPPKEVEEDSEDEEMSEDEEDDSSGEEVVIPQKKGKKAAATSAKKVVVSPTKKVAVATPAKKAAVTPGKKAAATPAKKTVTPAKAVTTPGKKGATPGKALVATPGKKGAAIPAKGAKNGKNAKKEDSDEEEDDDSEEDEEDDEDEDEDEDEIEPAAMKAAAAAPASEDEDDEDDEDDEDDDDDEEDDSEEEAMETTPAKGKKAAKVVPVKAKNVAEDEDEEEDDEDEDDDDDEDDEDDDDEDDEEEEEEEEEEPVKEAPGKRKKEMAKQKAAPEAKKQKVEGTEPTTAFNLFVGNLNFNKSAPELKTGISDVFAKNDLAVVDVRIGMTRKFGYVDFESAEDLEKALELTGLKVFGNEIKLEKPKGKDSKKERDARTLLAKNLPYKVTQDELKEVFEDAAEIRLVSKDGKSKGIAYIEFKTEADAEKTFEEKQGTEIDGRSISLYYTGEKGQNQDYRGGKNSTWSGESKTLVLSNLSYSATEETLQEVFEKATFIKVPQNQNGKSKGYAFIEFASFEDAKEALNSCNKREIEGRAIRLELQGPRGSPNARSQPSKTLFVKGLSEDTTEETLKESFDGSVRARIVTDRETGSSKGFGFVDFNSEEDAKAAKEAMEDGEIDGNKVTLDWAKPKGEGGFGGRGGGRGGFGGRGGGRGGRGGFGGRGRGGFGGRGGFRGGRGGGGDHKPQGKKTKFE
# [10] = molecular target: DNA topoisomerase 2-beta (Homo sapiens) (UniProt Q02880)
# Chain of DNA topoisomerase 2-beta (Homo sapiens) (Q02880 whole entry): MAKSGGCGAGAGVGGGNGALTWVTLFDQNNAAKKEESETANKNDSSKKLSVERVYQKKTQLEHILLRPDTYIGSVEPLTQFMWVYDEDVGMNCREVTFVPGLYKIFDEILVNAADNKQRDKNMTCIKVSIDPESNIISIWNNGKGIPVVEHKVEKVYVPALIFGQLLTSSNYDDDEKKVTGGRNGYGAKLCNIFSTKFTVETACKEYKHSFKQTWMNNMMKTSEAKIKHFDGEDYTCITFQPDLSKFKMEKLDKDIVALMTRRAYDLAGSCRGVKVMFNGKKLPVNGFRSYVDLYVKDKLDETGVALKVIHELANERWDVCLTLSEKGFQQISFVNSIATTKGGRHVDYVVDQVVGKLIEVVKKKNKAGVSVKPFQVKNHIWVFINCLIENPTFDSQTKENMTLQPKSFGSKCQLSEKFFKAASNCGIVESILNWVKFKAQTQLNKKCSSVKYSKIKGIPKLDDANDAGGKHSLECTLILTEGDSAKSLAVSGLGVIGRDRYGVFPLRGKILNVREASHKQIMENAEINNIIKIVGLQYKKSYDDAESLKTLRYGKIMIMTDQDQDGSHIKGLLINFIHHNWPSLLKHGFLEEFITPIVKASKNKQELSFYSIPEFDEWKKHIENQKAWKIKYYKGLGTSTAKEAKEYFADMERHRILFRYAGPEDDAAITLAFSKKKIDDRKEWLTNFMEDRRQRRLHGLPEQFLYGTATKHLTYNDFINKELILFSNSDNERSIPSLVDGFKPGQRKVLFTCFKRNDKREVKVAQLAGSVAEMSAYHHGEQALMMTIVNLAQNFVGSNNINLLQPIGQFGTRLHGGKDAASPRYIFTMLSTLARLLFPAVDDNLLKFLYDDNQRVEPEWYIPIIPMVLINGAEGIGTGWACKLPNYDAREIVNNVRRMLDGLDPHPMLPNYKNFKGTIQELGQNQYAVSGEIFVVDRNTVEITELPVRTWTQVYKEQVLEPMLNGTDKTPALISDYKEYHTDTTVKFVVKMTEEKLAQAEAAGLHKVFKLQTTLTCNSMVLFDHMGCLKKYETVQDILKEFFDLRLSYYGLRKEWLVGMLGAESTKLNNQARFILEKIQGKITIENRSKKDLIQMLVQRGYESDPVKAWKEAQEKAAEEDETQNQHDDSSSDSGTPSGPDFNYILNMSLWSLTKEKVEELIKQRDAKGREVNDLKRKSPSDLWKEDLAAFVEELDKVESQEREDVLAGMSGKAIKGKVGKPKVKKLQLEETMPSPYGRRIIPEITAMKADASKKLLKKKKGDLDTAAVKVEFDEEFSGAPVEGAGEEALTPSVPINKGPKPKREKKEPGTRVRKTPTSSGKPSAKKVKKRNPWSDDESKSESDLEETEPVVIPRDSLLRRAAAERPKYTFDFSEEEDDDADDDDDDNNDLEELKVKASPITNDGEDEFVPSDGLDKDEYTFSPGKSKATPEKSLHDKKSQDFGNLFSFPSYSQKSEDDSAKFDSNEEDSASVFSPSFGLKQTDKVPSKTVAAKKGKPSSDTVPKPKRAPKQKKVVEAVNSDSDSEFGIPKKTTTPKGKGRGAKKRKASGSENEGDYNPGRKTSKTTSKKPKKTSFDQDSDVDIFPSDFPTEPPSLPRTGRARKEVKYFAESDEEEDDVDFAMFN
# [11] = molecular target: DnaJ homolog subfamily C member 10 (Homo sapiens) (UniProt Q8IXB1)
# Calumenin (Homo sapiens) = Calumenin (Homo sapiens) (UniProt O43852)
# [12] = molecular target: Small nuclear ribonucleoprotein Sm D2 (Homo sapiens) (UniProt P62316)
# Chain of Small nuclear ribonucleoprotein Sm D2 (Homo sapiens) (P62316 whole entry): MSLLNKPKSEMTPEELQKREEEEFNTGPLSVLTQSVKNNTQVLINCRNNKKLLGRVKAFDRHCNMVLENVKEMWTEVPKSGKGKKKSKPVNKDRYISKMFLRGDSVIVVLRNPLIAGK
# [13] = molecular target: Transformer-2 protein homolog beta (Homo sapiens) (UniProt P62995)
# [14] = molecular target: TRAF family member-associated NF-kappa-B activator (Homo sapiens) (UniProt Q92844)
# [15] = molecular target: Cerebellar degeneration-related protein 2 (Homo sapiens) (UniProt Q01850)
# [16] = molecular target: Large ribosomal subunit protein uL24 (Homo sapiens) (UniProt P61254)
# [17] = molecular target: Protein MON2 homolog (Homo sapiens) (UniProt Q7Z3U7)
# [18] = molecular target: Activin receptor type-2B (Homo sapiens) (UniProt Q13705)
# [19] = molecular target: Protein YIPF5 (Homo sapiens) (UniProt Q969M3)
# [20] = molecular target: Vesicle-trafficking protein SEC22b (Homo sapiens) (UniProt O75396)
# Cyclin-T2 (Homo sapiens) = Cyclin-T2 (Homo sapiens) (UniProt O60583)
# [21] = molecular target: Golgi apparatus protein 1 (Homo sapiens) (UniProt Q92896)
# [22] = molecular target: Nucleolar and coiled-body phosphoprotein 1 (Homo sapiens) (UniProt Q14978)
# [23] = molecular target: Serine/threonine-protein kinase D3 (Homo sapiens) (UniProt O94806)
# [24] = molecular target: ELAV-like protein 1 (Homo sapiens) (UniProt Q15717)
# [25] = molecular target: Transcription elongation regulator 1 (Homo sapiens) (UniProt O14776)
# [26] = molecular target: Protein unc-119 homolog A (Homo sapiens) (UniProt Q13432)
# [27] = molecular target: Nuclear mitotic apparatus protein 1 (Homo sapiens) (UniProt Q14980)
# [28] = molecular target: eIF5-mimic protein 2 (Homo sapiens) (UniProt Q7L1Q6)
# [29] = molecular target: Interleukin-1 receptor-associated kinase 3 (Homo sapiens) (UniProt Q9Y616)
# [30] = molecular target: Histone-binding protein RBBP4 (Homo sapiens) (UniProt Q09028)
# [31] = molecular target: Tyrosine-protein kinase Lck (Homo sapiens) (UniProt P06239)
# Chain of Tyrosine-protein kinase Lck (Homo sapiens) (P06239 2-509 limits assumed): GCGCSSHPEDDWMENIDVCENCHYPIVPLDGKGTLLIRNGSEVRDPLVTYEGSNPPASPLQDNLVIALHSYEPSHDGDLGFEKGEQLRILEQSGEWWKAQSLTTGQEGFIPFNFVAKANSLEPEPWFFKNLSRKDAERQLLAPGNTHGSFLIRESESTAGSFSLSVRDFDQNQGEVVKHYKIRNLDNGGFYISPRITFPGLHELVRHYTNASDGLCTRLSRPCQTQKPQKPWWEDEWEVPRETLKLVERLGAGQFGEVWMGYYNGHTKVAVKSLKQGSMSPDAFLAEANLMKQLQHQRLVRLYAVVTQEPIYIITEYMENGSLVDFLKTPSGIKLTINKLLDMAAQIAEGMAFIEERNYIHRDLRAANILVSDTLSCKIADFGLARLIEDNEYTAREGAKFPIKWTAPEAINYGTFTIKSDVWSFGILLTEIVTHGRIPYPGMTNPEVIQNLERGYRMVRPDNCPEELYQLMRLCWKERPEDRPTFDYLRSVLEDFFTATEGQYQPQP
# [32] = molecular target: Heterogeneous nuclear ribonucleoprotein K (Homo sapiens) (UniProt P61978)
# [33] = molecular target: Growth factor receptor-bound protein 2 (Homo sapiens) (UniProt P62993)
# [34] = molecular target: RNA-binding protein 28 (Homo sapiens) (UniProt Q9NW13)
# [35] = molecular target: Tubulin beta-3 chain (Homo sapiens) (UniProt Q13509)
# Chain of Tubulin beta-3 chain (Homo sapiens) (Q13509 whole entry): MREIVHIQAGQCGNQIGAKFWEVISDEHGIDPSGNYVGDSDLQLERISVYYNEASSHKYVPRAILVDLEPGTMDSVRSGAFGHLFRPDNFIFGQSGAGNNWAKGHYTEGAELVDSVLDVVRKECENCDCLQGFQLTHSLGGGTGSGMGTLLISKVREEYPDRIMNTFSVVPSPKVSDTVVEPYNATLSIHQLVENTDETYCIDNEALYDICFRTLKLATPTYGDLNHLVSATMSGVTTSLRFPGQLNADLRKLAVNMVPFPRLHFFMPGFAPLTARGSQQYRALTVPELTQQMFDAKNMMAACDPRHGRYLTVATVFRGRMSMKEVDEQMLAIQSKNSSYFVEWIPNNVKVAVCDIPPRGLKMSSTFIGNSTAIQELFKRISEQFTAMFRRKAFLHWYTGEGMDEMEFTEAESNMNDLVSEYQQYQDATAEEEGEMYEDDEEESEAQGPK
# [36] = molecular target: Nuclear pore complex protein Nup160 (Homo sapiens) (UniProt Q12769)
# [37] = molecular target: KH domain-containing, RNA-binding, signal transduction-associated protein 1 (Homo sapiens) (UniProt Q07666)
# [38] = molecular target: Eukaryotic translation initiation factor 4 gamma 1 (Homo sapiens) (UniProt Q04637)
# [39] = molecular target: Nck-associated protein 1-like (Homo sapiens) (UniProt P55160)
# [40] = molecular target: WD repeat-containing protein 1 (Homo sapiens) (UniProt O75083)
# [41] = molecular target: STE20-like serine/threonine-protein kinase (Homo sapiens) (UniProt Q9H2G2)
# [42] = molecular target: Platelet-derived growth factor receptor beta (Homo sapiens) (UniProt P09619)
# [43] = molecular target: Mitogen-activated protein kinase kinase kinase 3 (Homo sapiens) (UniProt Q99759)
# Also: assay method not described here.
# Chain of Mitogen-activated protein kinase kinase kinase 11 (Homo sapiens) (Q16584 whole entry, looked up): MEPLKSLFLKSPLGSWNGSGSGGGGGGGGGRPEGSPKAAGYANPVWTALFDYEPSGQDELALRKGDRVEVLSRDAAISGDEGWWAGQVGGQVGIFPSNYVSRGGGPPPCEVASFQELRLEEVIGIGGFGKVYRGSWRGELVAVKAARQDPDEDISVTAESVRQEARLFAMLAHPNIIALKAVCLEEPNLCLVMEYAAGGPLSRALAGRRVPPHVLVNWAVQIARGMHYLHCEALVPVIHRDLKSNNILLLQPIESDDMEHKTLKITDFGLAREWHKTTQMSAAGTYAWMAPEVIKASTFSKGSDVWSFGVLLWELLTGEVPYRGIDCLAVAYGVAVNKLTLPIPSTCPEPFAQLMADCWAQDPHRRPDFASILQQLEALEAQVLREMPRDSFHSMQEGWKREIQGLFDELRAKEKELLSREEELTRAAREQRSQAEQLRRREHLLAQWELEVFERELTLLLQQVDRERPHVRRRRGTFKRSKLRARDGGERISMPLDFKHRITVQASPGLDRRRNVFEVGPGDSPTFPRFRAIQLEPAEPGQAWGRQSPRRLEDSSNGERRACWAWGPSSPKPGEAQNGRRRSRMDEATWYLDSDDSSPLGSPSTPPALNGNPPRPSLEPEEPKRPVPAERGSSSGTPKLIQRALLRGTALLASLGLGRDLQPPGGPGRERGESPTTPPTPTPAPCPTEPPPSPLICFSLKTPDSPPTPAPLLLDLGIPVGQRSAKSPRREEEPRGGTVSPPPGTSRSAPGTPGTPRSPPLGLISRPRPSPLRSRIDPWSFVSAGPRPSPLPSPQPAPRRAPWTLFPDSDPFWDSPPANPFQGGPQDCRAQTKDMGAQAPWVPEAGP
smiles,measurement,setting,value
Cc1ccc(C(=O)Nc2cccc(C(F)(F)F)c2)cc1Nc1nc(-c2cccnc2)nc2c1cnn2C,ED50,[1],16.4 µM
same,ED50,[2],6.35 µM
same,ED50,[3],0.00531 µM
same,ED50,[4],0.176 µM
same,ED50,[5],0.00103 µM
same,ED50,[6],3.81 µM
same,ED50,[7],784 µM
same,ED50,[8],5.57 µM
same,ED50,[9],0.362 µM
same,ED50,Nucleolin (Homo sapiens),2.79 µM
same,ED50,[10],3.18 µM
same,ED50,[11],4930 µM
same,ED50,Calumenin (Homo sapiens),1.72 µM
same,ED50,[12],42.7 µM
same,ED50,[13],0.0121 µM
same,ED50,[14],13.4 µM
same,ED50,[15],26.2 µM
same,ED50,[16],6.18 µM
same,ED50,[17],0.00382 µM
same,ED50,[18],4.77 µM
same,ED50,[19],1.94 µM
same,ED50,[20],103 µM
same,ED50,Cyclin-T2 (Homo sapiens),12.8 µM
same,ED50,[21],6.56 µM
same,ED50,Homo sapiens,0.0833 µM
same,ED50,[22],0.0139 µM
same,ED50,[23],0.0978 µM
same,ED50,[24],0.0107 µM
same,ED50,[25],732 µM
same,ED50,[26],0.46 µM
same,ED50,[27],0.000308 µM
same,ED50,[28],0.571 µM
same,ED50,[29],1.34 µM
same,ED50,[30],11 µM
same,ED50,[31],1.36 µM
same,ED50,[32],0.0564 µM
same,ED50,[33],0.0534 µM
same,ED50,[34],0.021 µM
same,ED50,[35],3.06 µM
same,ED50,[36],0.878 µM
same,ED50,[37],0.118 µM
same,ED50,[38],0.0238 µM
same,ED50,[39],41.5 µM
same,ED50,[40],2.69 µM
same,ED50,[41],0.0219 µM
same,ED50,[42],0.000102 µM
same,ED50,[43],12.1 µM
Cc1ccc(C(=O)Nc2cccc(C(F)(F)F)c2)cc1Nc1nc(-c2cccnc2)nc2nn(C)cc12,ED50,[1],0.042 µM
same,ED50,[2],36.4 µM
same,ED50,[3],0.0576 µM
same,ED50,[4],5.25 µM
same,ED50,[5],0.435 µM
same,ED50,[6],0.000136 µM
same,ED50,[7],0.00758 µM
same,ED50,[8],0.362 µM
same,ED50,[9],0.016 µM
same,ED50,Nucleolin (Homo sapiens),30.3 µM
same,ED50,[10],732 µM
same,ED50,[11],3.27 µM
same,ED50,Calumenin (Homo sapiens),3.41 µM
same,ED50,[12],9770 µM
same,ED50,[13],0.537 µM
same,ED50,[14],0.0508 µM
same,ED50,[15],0.303 µM
same,ED50,[16],0.0162 µM
same,ED50,[17],0.191 µM
same,ED50,[18],0.00453 µM
same,ED50,[19],0.0595 µM
same,ED50,[20],3.32 µM
same,ED50,Cyclin-T2 (Homo sapiens),0.0632 µM
same,ED50,[21],0.162 µM
same,ED50,Homo sapiens,21400 µM
same,ED50,[22],0.178 µM
same,ED50,[23],1.55 µM
same,ED50,[24],16.5 µM
same,ED50,[25],0.0876 µM
same,ED50,[26],47.8 µM
same,ED50,[27],0.0318 µM
same,ED50,[28],2.54 µM
same,ED50,[29],0.0262 µM
same,ED50,[30],0.458 µM
same,ED50,[31],7.84 µM
same,ED50,[32],0.184 µM
same,ED50,[33],0.821 µM
same,ED50,[34],1.75 µM
same,ED50,[35],0.106 µM
same,ED50,[36],160 µM
same,ED50,[37],9.62 µM
same,ED50,[38],0.0778 µM
same,ED50,[39],1530 µM
same,ED50,[40],0.0817 µM
same,ED50,[41],0.187 µM
same,ED50,[42],10 µM
same,ED50,[43],0.0358 µM
